Data reported in ChEMBL document CHEMBL5528002, “Identification of selective 5-LOX and FLAP inhibitors as novel anti-inflammatory agents by ligand-based virtual screening” (Eur J Med Chem, 2024).
pIC50: −log10 of the molar value. Each block holds one compound with its values, some of them ahead of it. The source made the active and inactive calls. The rule behind the calls is not given here.

Assays:
Macrophage cell line [1] = test: Effect on lipid mediator formation in human M2-like phenotype MDM cells by measuring 5-HEPE formation at 10 uM pre-incubated for 15 mins followed by SACM stimulation and measured after 90 mins by UPLC-MS/MS analysis (reference value: 299 +/- 20 pg/ml); type: functional; settings: time 105 min, 1.75 h
Macrophage cell line [2] = test: Effect on lipid mediator formation in human M2-like phenotype MDM cells by measuring 5-HETE formation at 10 uM pre-incubated for 15 mins followed by SACM stimulation and measured after 90 mins by UPLC-MS/MS analysis (reference value: 4812 +/- 561 pg/ml); type: functional; settings: time 105 min, 1.75 h
Macrophage cell line [3] = test: Effect on lipid mediator formation in human M1-like phenotype MDM cells by measuring LTB4 formation at 10 uM pre-incubated for 15 mins followed by SACM stimulation and measured after 90 mins by UPLC-MS/MS analysis (reference value: 1413 +/- 452 pg/ml); type: functional; settings: time 105 min, 1.75 h
Macrophage cell line [4] = test: Effect on lipid mediator formation in human M1-like phenotype MDM cells by measuring arachidonic acid formation at 10 uM pre-incubated for 15 mins followed by SACM stimulation and measured after 90 mins by UPLC-MS/MS analysis relative to control; type: functional; settings: time 105 min, 1.75 h
[5] = Antioxidant activity assessed as DPPH radical scavenging activity at 10 uM incubated for 30 min by DPPH assay; type: functional
Macrophage cell line [6] = test: Effect on lipid mediator formation in human M2-like phenotype MDM cells by measuring 15-HEPE formation at 10 uM pre-incubated for 15 mins followed by SACM stimulation and measured after 90 mins by UPLC-MS/MS analysis (reference value: 1385 +/- 343 pg/ml); type: functional; settings: time 105 min, 1.75 h
Macrophage cell line [7] = test: Effect on lipid mediator formation in human M2-like phenotype MDM cells by measuring 4-HDHA formation at 10 uM pre-incubated for 15 mins followed by SACM stimulation and measured after 90 mins by UPLC-MS/MS analysis relative to control; type: functional; settings: time 105 min, 1.75 h
Macrophage cell line [8] = test: Effect on lipid mediator formation in human M2-like phenotype MDM cells by measuring 17-HDHA formation at 10 uM pre-incubated for 15 mins followed by SACM stimulation and measured after 90 mins by UPLC-MS/MS analysis (reference value: 4702 +/- 885 pg/ml); type: functional; settings: time 105 min, 1.75 h
Macrophage cell line [9] = test: Effect on lipid mediator formation in human M2-like phenotype MDM cells by measuring PGE2 formation at 10 uM pre-incubated for 15 mins followed by SACM stimulation and measured after 90 mins by UPLC-MS/MS analysis (reference value: 159 +/- 24 pg/ml); type: functional; settings: time 105 min, 1.75 h
Macrophage cell line [10] = test: Effect on lipid mediator formation in human M2-like phenotype MDM cells by measuring t-LTB4 formation at 10 uM pre-incubated for 15 mins followed by SACM stimulation and measured after 90 mins by UPLC-MS/MS analysis (reference value: 426 +/- 49 pg/ml); type: functional; settings: time 105 min, 1.75 h
[11] = target: T1, Polyunsaturated fatty acid 5-lipoxygenase (Homo sapiens) (UniProt P09917); test: Inhibition of human recombinant 5-LOX expressed in Escherichia coli BL21(DE3) assessed as enzyme remaining activity at 10 uM using arachidonic acid as substrate preincubated with compound for 15 mins followed by substrate and CaCl2 addition measured after 10 mins by RP-HPLC analysis relative to control; settings: time 25.0 min
T1 sequence (whole entry): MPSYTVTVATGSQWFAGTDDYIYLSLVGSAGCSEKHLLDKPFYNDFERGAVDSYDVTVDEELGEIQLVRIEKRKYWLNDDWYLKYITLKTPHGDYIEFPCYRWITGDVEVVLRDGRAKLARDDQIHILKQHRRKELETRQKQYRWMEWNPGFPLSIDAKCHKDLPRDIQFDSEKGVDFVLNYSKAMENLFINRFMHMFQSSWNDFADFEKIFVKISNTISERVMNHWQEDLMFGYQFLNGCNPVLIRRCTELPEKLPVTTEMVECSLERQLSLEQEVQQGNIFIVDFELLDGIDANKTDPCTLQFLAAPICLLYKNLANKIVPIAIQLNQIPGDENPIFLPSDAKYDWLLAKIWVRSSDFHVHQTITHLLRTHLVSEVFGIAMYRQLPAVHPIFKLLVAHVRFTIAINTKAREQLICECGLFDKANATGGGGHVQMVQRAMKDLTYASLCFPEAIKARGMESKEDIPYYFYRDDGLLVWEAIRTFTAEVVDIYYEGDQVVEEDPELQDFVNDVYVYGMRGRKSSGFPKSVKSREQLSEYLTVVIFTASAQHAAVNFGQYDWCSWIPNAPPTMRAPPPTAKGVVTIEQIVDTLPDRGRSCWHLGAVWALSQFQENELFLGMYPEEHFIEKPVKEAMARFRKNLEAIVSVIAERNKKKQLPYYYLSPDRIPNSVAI

Macrophage cell line [12] = test: Effect on lipid mediator formation in human M1-like phenotype MDM cells by measuring DHA formation at 10 uM pre-incubated for 15 mins followed by SACM stimulation and measured after 90 mins by UPLC-MS/MS analysis (reference value: 66334 +/- 8894 pg/ml); type: functional; settings: time 105 min, 1.75 h
Macrophage cell line [13] = test: Effect on lipid mediator formation in human M1-like phenotype MDM cells by measuring 15-HEPE formation at 10 uM pre-incubated for 15 mins followed by SACM stimulation and measured after 90 mins by UPLC-MS/MS analysis (reference value: 57 +/- 10 pg/ml); type: functional; settings: time 105 min, 1.75 h
[14] = target: T2, Polyunsaturated fatty acid 5-lipoxygenase (Homo sapiens, UniProt P09917); test: Inhibition of human recombinant 5-LOX expressed in Escherichia coli BL21(DE3) using arachidonic acid as substrate preincubated with compound for 15 mins followed by substrate and CaCl2 addition measured after 10 mins by RP-HPLC analysis
T2 sequence (P09917 whole entry): T1 sequence (whole entry)

[15] = target: T1, Polyunsaturated fatty acid 5-lipoxygenase (Homo sapiens); test: Inhibition of 5-LOX in human Neutrophil assessed as enzyme remaining activity at 10 uM using arachidonic acid as substrate preincubated with compound for 15 mins followed by substrate and A23187 addition measured after 10 mins by RP-HPLC analysis relative to control; type: cell-based; settings: time 25.0 min
Macrophage cell line [16] = test: Effect on lipid mediator formation in human M2-like phenotype MDM cells by measuring arachidonic acid formation at 10 uM pre-incubated for 15 mins followed by SACM stimulation and measured after 90 mins by UPLC-MS/MS analysis (reference value: 92007 +/- 4892 pg/ml); type: functional; settings: time 105 min, 1.75 h

Activity [11]: 84.5%
pIC50 [14]: < 5.00
Activity [15]: 18.6%
SMILES: COc1ccc(C2=C/C(=C/c3ccc(O)cc3O)C(=O)O2)cc1
Activity (Macrophage cell line [1]): 55 pg/mL
Activity (Macrophage cell line [2]): 450 pg/mL
Activity (Macrophage cell line [3]): 115 pg/mL
Activity (Macrophage cell line [4]): 116%
Activity [5]: inactive
Activity (Macrophage cell line [6]): 2169 pg/mL
Activity (Macrophage cell line [7]): 85%
Activity (Macrophage cell line [8]): 8152 pg/mL
Activity (Macrophage cell line [9]): 412 pg/mL
Activity (Macrophage cell line [10]): 48 pg/mL
Activity (Macrophage cell line [12]): 71742 pg/mL
Activity (Macrophage cell line [13]): 55 pg/mL
Activity (Macrophage cell line [16]): 94519 pg/mL

Activity [11]: 96.5%
pIC50 [14]: < 5.00
Activity [15]: 24.3%
SMILES: Oc1ccc(CCC2CCC(c3ccc(O)cc3)CO2)cc1 (configuration not stated)
Activity (Macrophage cell line [1]): 102 pg/mL
Activity (Macrophage cell line [2]): 1181 pg/mL
Activity (Macrophage cell line [3]): 79 pg/mL
Activity (Macrophage cell line [4]): 108%
Activity [5]: inactive
Activity (Macrophage cell line [6]): 1937 pg/mL
Activity (Macrophage cell line [7]): 100%
Activity (Macrophage cell line [8]): 6992 pg/mL
Activity (Macrophage cell line [9]): 234 pg/mL
Activity (Macrophage cell line [10]): 84 pg/mL
Activity (Macrophage cell line [12]): 62371 pg/mL
Activity (Macrophage cell line [13]): 55 pg/mL
Activity (Macrophage cell line [16]): 103809 pg/mL
